Data reported in patent US8748343B2, “Herbicide/safener combintions” (Bayer Cropscience AG, priority 1998, dated 2014).

What was measured:
Abutilon theophrastis = assay: Field trial, action on grass weeds/broad-leaved weeds (post-emergence); type: in vivo; settings: 100 g a.i./ha
Protocol: (§1) The field experiments were carried out in plots of 8 to 10 m^2, and each experiment was carried out in 2 to 4 replications. After the crop plants had been sown, the test preparations were applied pre-emergence, or in the 2-6-leaf stage, using plot sprayers. The spray volume was 100-300 l water/ha; it was applied by means of flat-jet nozzles at a pressure of 2-3 bar. Evaluation was done by visual scoring. The effects on the crop plants or on the broad-leaved weeds/grass weeds were estimated in comparison with untreated control plots using a percentage scale (0-100%). After application, the plants were scored 3-4 times at intervals of approx. 14, 28, 42 days after application. The results represent averages over 2-4 replications. […] Anti-weed action should show efficacies of ≧60%. From sowing until the experiments were concluded, they were exposed to the natural weather conditions (precipitation, temperature, atmospheric humidity, insolation), as they are characteristic for the experimental sites.

Panicum minor = assay: as above; type: in vivo; settings: 100 g a.i./ha
Protocol: as §1

Setaria faberi = assay: as above; type: in vivo; settings: 100 g a.i./ha
Protocol: as §1

maize = assay: Field trial, phytotoxicity to maize (post-emergence)
Protocol: as §1

| SMILES | Phytotoxicity [%] Abutilon theophrastis (Abutilon theophrastis) | Phytotoxicity [%] Panicum minor (Panicum minor) | Phytotoxicity [%] Setaria faberi (Setaria faberi) | Phytotoxicity to maize [%] 14 dat (maize; field trial, 4-leaf stage (Table 11), 120 g a.i./ha, 14 days after treatment) | Phytotoxicity to maize [%] 42 dat (maize; field trial, 4-leaf stage (Table 11), 120 g a.i./ha, 42 days after treatment) | Phytotoxicity to maize [%] 14 dat (maize; field trial, 4-leaf stage, post-emergence, 100 g a.i./ha, 14 days after treatment) | Phytotoxicity to maize [%] 31 dat (maize; field trial, 4-leaf stage, post-emergence, 100 g a.i./ha, 31 days after treatment) | Phytotoxicity to maize [%] 14 dat (maize; field trial, mixture with sulfonylureas, post-emergence (Table 13), 120 g a.i./ha, 14 days after treatment) | Phytotoxicity to maize [%] 42 dat (maize; field trial, mixture with sulfonylureas, post-emergence (Table 13), 120 g a.i./ha, 42 days after treatment) | Phytotoxicity [%] Maize (maize; field trial, post-emergence (Table 12), 100 g a.i./ha) | Phytotoxicity to maize [%] 14 dat (maize; maize, in vivo, 14 days) | Phytotoxicity to maize [%] 42 dat (maize; maize, in vivo, 42 days) |
| --- | --- | --- | --- | --- | --- | --- | --- | --- | --- | --- | --- | --- |
| CCOC(=O)C1=NOC(c2ccccc2)(c2ccccc2)C1 [Safener II-9, Ethyl 5,5-diphenyl-2-isoxazoline-3-carboxylate] | 0% | 0% | 0% | 0% | 0% | 0% | 0% | 0% | 0% | 0% | – | – |
| COc1cc(OC)nc(NC(=O)NS(=O)(=O)c2cc(NC=O)ccc2C(=O)N(C)C)n1 [Herbicide 2, N,N-Dimethyl-2-[3-(4,6-dimethoxypyrimidin-2-yl)ureido-sulfonyl]-4-formylaminobenzamide] | – | – | – | – | – | – | – | – | – | – | 13% | 7% |
